Where two headings read alike, the source gives them in different places.
Tests used:
[1] = tested on: human solid tumors implanted into nude mice; details: cited from earlier work
[2] = tested on: cytochrom P450 dependent liver monooxygenases
log P (octanol/water) = assay type: physicochemical
[3] = solubility in physiological saline (pH 7.4); assay type: physicochemical
tumor cells = assay: inhibition of growth of tumor cells; assay type: cell-based; details: relative to parent compounds
[4] = nude mice, comparable dosage, cf. PCT/EP00/03210

Compound: O=C1Nc2ccccc2/C1=C1/Nc2ccccc2C1=O [indirubin]
- toxicity (body weight loss) ([1]; mouse, in vivo): remarkably toxic
- metabolism (oxidative, liver microsomes) [2]: not metabolized to a detectable extent

Compound: Cc1ccc2c(c1)/C(=C1/Nc3ccccc3C1=O)C(=O)N2 [5-methylindirubin]
- log P (octanol/water) (log P (octanol/water)): 1.1
- effectiveness on human solid tumors implanted into nude mice [1, 4]: highly effective
- toxicity (body weight loss) [1, 4]: without any perceptible toxicity
- solubility in physiological saline [3]: 0.1 mg/l
- metabolism (oxidative, liver microsomes) ([2]; liver microsome preparations from cows, pigs, rats and human liver samples): rapidly metabolized

Compound: Cc1cc2c(cc1O)NC(=O)C2=C1Nc2ccccc2C1=O [6-hydroxy-5-methylindirubin]
- log P (octanol/water) (log P (octanol/water)): 1.6
- increase of solubility versus parent compound 5-methylindirubin (factor) [3]: more than 2000
- solubility in physiological saline [3]: up to 240 mg/l
- inhibiting growth of tumor cells, compared with the parent compounds (tumor cells): at least as effective

Compound: Cc1cc2c(cc1O)NC(=O)C2=C1Nc2c(O)cccc2C1=O [6,7′-dihydroxy-5-methylindirubin]
- inhibiting growth of tumor cells, compared with the parent compounds (tumor cells): at least as effective

Reference: patent publication US20050080020A1, “Hydroxylated indirubin derivatives” (priority 2002, published 2005)
